From US5861424A, “Composition and method for treating cancer” (priority 1995, dated 1999)
Read-outs that look alike come from different tables or passages of the source.

Assays:
human melanoma LOX = test: Survival of nude mice implanted with human melanoma LOX; assay type: in vivo, human melanoma in male athymic Swiss nu/nu mouse; conditions: Mus musculus, ip, 24 h, read-out: T/C (survival)
Procedure: LOX, a human melanoma cell line, grown subcutaneously in nude mice was excised, trypsinized to yield a single cell suspension using a metal grid with a […]. Red blood cells were lysed by incubation with 0.17 molar ammonium chloride at 4° C. for 20 minutes. Five million viable trypan blue negative cells made up in 0.1 ml of Dulbecco modified Eagles' medium (DME) were injected into the peritoneal cavity of a male athymic Swiss nu/nu mouse. The control group and each treatment group consisted of 5 to 10 mice. Treatment was commenced the following day by intraperitoneal injection.
Ten control mice received 0.25 ml of 2% dextrose on those days the treated groups were injected with the compounds of this invention. The compounds of the General Formulas. (1) to (6) used in this invention which were tested are listed in Table VIII below and the results obtained are shown in Table VIII and FIG. 1-6 of the accompanying drawings. T/C is the ratio, expressed as a percentage of the mean survival age of the treated group to the mean survival age of the untreated control group.

[1] = system: human colon carcinoma cell line CX-1; test: Colony formation assay, human colon carcinoma CX-1; assay type: cell-based; conditions: Table III; for IC50: Homo sapiens, Colon carcinoma cell, read-out: CX-1 (IC50); for IC50 / CX-1 (IC50): 24 h treatment, colony count after 7 to 10 days; for Selectivity (ratio of IC50 for CV-1 and IC50 for CX-1): CV-1/CX-1
Procedure: Human colon carcinoma cell line CX-1 or normal monkey kidney epithelial cell line CV-1 was chosen as representatives of cancer cells and normal cells, respectively. […] CX-1 cells (2,000 cells/well) and CV-1 cells (1,000 cells/well) were plated in 24-well plastic culture plates. […] The control received culture media only. Cells were treated with compounds of General Formulas (1) to (6) at 37° C. for 24 hours. After rinsing with fresh culture medium three times, the cells were further incubated at 37° C. for 7 to 10 days. Cell colonies were fixed and stained with 2% crystal violet in 70% ethanol for 10 minutes and rinsed in water. […] The selectivity is defined as the ratio of IC50 for CV-1 and IC50 for CX-1.

[2] = system: normal monkey kidney epithelial cell line CV-1; test: Colony formation assay, normal monkey kidney epithelial cells CV-1; conditions: for IC50: Primates, Epithelial cell;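 on all read-outs here: colonies visualized by crystal violet staining, incubation at 37 °C, IC50 relative to untreated wells given culture medium alone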
[3] = system: human breast carcinoma MCF-7 cell line; test: Colony formation assay, human breast carcinoma MCF-7; assay type: cell-based; conditions: for Selectivity (CV-1 IC50 / MCF-7 IC50): CV-1/MCF-7; for IC50: Homo sapiens, MCF7, 24 h, read-out: MCF-7 (IC50)
From the text: (§1) The control received culture media only.
The Selectivity values, MCF-7 values and CV-1 values for compounds of the General Formulas (1) to (6) used in the present invention are shown in Table VI below.

[4] = system: human bladder carcinoma EJ cell line; test: Colony formation assay, human bladder carcinoma EJ; assay type: cell-based; conditions: Table IV; for IC50: Homo sapiens, EJ, 24 h, 24 h treatment, read-out: EJ (IC50); for Selectivity (CV-1 IC50 / EJ IC50): CV-1/EJ
From the text: as §1

[5] = system: human melanoma LOX cell line; test: Colony formation assay, human melanoma LOX; assay type: cell-based; conditions: Table V; for IC50: Homo sapiens, LOX, 24 h, 24 h treatment, read-out: LOX (IC50); for Selectivity (CV-1 IC50 / LOX IC50): CV-1/LOX
From the text: as §1

[6] = system: human pancreatic carcinoma CRL 1420 cell line; test: Colony formation assay, human pancreatic carcinoma CRL 1420; assay type: cell-based; conditions: Table VII; for Selectivity (CV-1 IC50 / CRL-1420 IC50): CV-1/CRL-1420; for IC50: Homo sapiens, 24 h
From the text: as §1
The Selectivity values, CRL 1420 values and CV-1 values for compounds of the General Formulas (1) to (6) used in the present invention are shown in Table VII below.

[7] = read-out: CV-1 (IC50), Table III, 24 h treatment, colony count after 7 to 10 days
[8] = read-out: CV-1 (IC50), Table IV
[9] = read-out: CV-1 (IC50), Table VII
[10] = read-out: CV-1 (IC50), Table VI

Row | SMILES | IC50 [1] [µg/mL] | Selectivity (ratio of IC50 for CV-1 and IC50 for CX-1) [1] | IC50 [2, 7] [µg/mL] | Selectivity (CV-1 IC50 / MCF-7 IC50) ([3]; Table VI) | IC50 ([2]; read-out: CV-1 (IC50), Table V) [µg/mL] | IC50 [4] [µg/mL] | Selectivity (CV-1 IC50 / EJ IC50) [4] | IC50 [5] [µg/mL] | Selectivity (CV-1 IC50 / LOX IC50) [5] | Selectivity (CV-1 IC50 / CRL-1420 IC50) [6] | IC50 [2, 9] [µg/mL] | IC50 ([6]; 24 h treatment) [µg/mL] | other results
1 | CCC[n+]1c(C=c2sc(=CC=C3Sc4c(ccc5ccccc45)N3CC)c(=O)n2CC)sc2cc(C)c(OCC)cc21 [Compound 6] | 0.025 | 400 | – | – | – | – | – | – | – | – | – | – | response vs control in vivo at 5 mg/kg (human melanoma LOX; i.p. on day 1, 3, 5, 7): 126%; IC50 ([2]; read-out: CV-1 (IC50)): 10 µg/mL
2 | CCN1C(=CC=c2sc(=Cc3sc4c5ccccc5ccc4[n+]3CC)n(CC)c2=O)Sc2ccc3ccccc3c21 [Compound 31] | 0.025 | 400 | 10 | – | – | – | – | – | – | – | – | – | response vs control in vivo at 40 mg/kg (human melanoma LOX; 40 mg/kg, i.p. on day 1, 2, 3, 4, 8, 10, 17): 169%
3 | CCN1C(=CC=c2sc(=Cc3sc4c5ccccc5ccc4[n+]3C)n(CC)c2=O)Sc2ccc3ccccc3c21 [Compound 33] | 0.02 | 1000 | 20 | – | – | – | – | – | – | – | – | – | response vs control in vivo at 10 mg/kg (human melanoma LOX; i.p. on day 1, 2, 3, 4, 5, 7, 8, 9, 10, 11): 173%
4 | CCN1C(=CC=c2sc(=Cc3sc4ccccc4[n+]3CC)n(CC)c2=O)Sc2ccc3ccccc3c21 [Compound 37] | 0.02 | 250 | – | 100 | 5 | 0.03 | 167 | 0.05 | 100 | 167 | – | – | MCF-7 (IC50) ([3]; Table VI, 24 h treatment): 0.05 µg/mL; IC50 [2, 8]: 5 µg/mL; CRL-1420 (IC50) ([6]; 24 h treatment): 0.03 µg/mL
5 | CCN1C(=CC=c2sc(=Cc3scc[n+]3CC)n(CC)c2=O)Sc2ccc3ccccc3c21 [Compound 41] | – | – | – | – | – | – | – | – | – | 120 | 1.5 | 0.05 | response vs control in vivo at 5 mg/kg (human melanoma LOX; i.p. on day 1, 5, 9): 128%
6 | CCN1C(=CC=c2sc(=Cc3sc4c5ccccc5ccc4[n+]3C)n(CC)c2=O)Sc2ccc3ccccc3c21 [Compound 49] | – | 667 | – | 333 | 20 | 0.045 | 444 | 0.075 | 267 | 267 | 20 | 0.075 | IC50 ([3]; Table VI, 24 h treatment): 0.06 µg/mL; CX-1 (IC50) [1]: 0.03 µg/mL; IC50 [2, 8]: 20 µg/mL; IC50 [2, 10]: 20 µg/mL
7 | CCN1C(=CC=c2sc(=Cc3sc4c5ccccc5ccc4[n+]3CC)n(CC)c2=O)Sc2ccc3ccccc3c21 [Compound 51] | – | 333 | – | – | – | 0.04 | – | 0.09 | 222 | 286 | – | 0.07 | response vs control in vivo at 20 mg/kg (human melanoma LOX; i.p. on day 1, 2, 3, 6, 9, 13): 174%; CX-1 (IC50) [1]: 0.03 µg/mL
8 | CCN1C(=CC=c2sc(=Cc3sc4c5ccccc5ccc4[n+]3CCO)n(CC)c2=O)Sc2ccc3ccccc3c21 [Compound 53] | 0.05 | 400 | 20 | – | – | – | – | – | – | 111 | 20 | 0.18 | response vs control in vivo at 20 mg/kg (human melanoma LOX; i.p. on day 1, 3, 6, 9, 13, 16): 222%
9 | CCN1C(C)=CSC1=CC=c1sc(=Cc2sc3ccccc3[n+]2CC)n(CC)c1=O [Compound 96] | – | 667 | – | – | 20 | – | – | 0.09 | 222 | – | – | – | response vs control in vivo at 2 mg/kg (human melanoma LOX; 2 mg/kg, i.p. on day 1, 2, 3*, 6*, 9*, 13*, 16* (*4 mg/kg)): 253%; CX-1 (IC50) [1]: 0.03 µg/mL
10 | CCN1CCSC1=CC=c1sc(=Cc2sc3ccc(OC)cc3[n+]2CC)n(CC)c1=O [Compound 125] | 0.04 | 200 | – | 133 | 8 | 0.06 | 133 | 0.06 | 133 | 160 | 8 | 0.05 | IC50 ([3]; Table VI, 24 h treatment): 0.06 µg/mL; IC50 [2, 8]: 8 µg/mL; IC50 [2, 10]: 8 µg/mL
11 | CCN1CCSC1=CC=c1sc(=Cc2sc3ccccc3[n+]2CCOC)n(CC)c1=O [Compound 145] | 0.05 | 200 | – | 100 | – | 0.082 | 122 | 0.064 | 156 | 122 | – | 0.082 | IC50 ([3]; Table VI, 24 h treatment): 0.1 µg/mL; IC50 ([2]; read-out: CV-1 (IC50)): 10 µg/mL
12 | CCN1CCSC1=CC=c1sc(=Cc2sc3c4ccccc4ccc3[n+]2CC)n(CC)c1=O [Compound 150] | – | 100 | – | – | – | – | – | – | – | – | – | – | response vs control in vivo at 5 mg/kg (human melanoma LOX; i.p. on day 1, 2, 9, 13, 16): 216%; CX-1 (IC50) [1]: 0.01 µg/mL; CV-1 (IC50) ([2]; Table III, 24 h treatment, colony count after 7 to 10 days): 1 µg/mL
13 | CCn1c(=Cc2sc(-c3ccccc3)c(-c3ccccc3)[n+]2CC)sc(=CC=C2N(C)c3ccccc3C2(C)C)c1=O [Compound 204] | – | – | – | – | – | – | – | – | – | – | – | – | response vs control in vivo at 5 mg/kg (human melanoma LOX; i.p. on day 1, 4, 7, 10, 13, 16, 19, 22): 174%
14 | CCn1c(=Cc2sc3ccccc3[n+]2CC)sc(=CC=C2N(C)c3ccccc3C2(C)C)c1=O [Compound 206] | 0.01 | 600 | 6 | 125 | 6 | 0.013 | 462 | 0.03 | 196 | 196 | 6 | 0.03 | IC50 ([3]; Table VI, 24 h treatment): 0.048 µg/mL; IC50 [2, 8]: 6 µg/mL; IC50 [2, 10]: 6 µg/mL
15 | CCN1C(=CC=c2sc(=Cc3sc4c5ccccc5ccc4[n+]3CC)n(CC)c2=O)N(CC(F)(F)C(F)F)c2cc(C(F)(F)F)ccc21 [Compound 230] | 0.05 | 375 | 15 | 167 | 15 | 0.05 | 300 | 0.06 | 200 | 300 | 15 | 0.05 | IC50 [3]: 0.09 µg/mL; IC50 [2, 8]: 15 µg/mL; IC50 [2, 10]: 15 µg/mL
16 | CCN1C(=CC=c2sc(=CC3=[N+](CC)CCS3)n(CC)c2=O)C=Cc2ccccc21 [Compound 244] | – | – | – | – | – | – | – | – | – | – | – | – | response vs control in vivo at 10 mg/kg (human melanoma LOX; i.p. on day 1, 3, 5, 7, 9): 153%
17 | CCN1C=CC=CC1=CC=c1sc(=Cc2sc3ccc4ccccc4c3[n+]2CC)n(CC)c1=O [Compound 278] | – | 333 | – | 111 | – | – | – | 0.035 | 286 | 250 | – | 0.04 | IC50 [3]: 0.09 µg/mL; CX-1 (IC50) [1]: 0.03 µg/mL; IC50 ([2]; read-out: CV-1 (IC50)): 10 µg/mL
18 | CCN1C(=CC=c2oc(=Cc3sc(-c4ccccc4)c(-c4ccccc4)[n+]3CC)n(CC)c2=O)Oc2ccccc21 [Compound 330] | 0.025 | 100 | 2.5 | – | – | – | – | – | – | – | – | – | response vs control in vivo at 5 mg/kg (human melanoma LOX; i.p. on day 1, 3, 5, 7, 9): 128%
